Measured values reported in publication PMC6264390, “Design, Synthesis and Structure-activity Studies of Rhodanine Derivatives as HIV-1 Integrase Inhibitors” (Molecules, 2010).

Experiments:
[1] = target: T1, human apurinic/apyrimidinic endonuclease 1 (APE1) (Homo sapiens, UniProt P27695); assay: APE1 inhibition assay; type: biochemical; details: read-out: Inhibition of APE1 catalytic activity IC50
T1 construct: His; made in house
Procedure, shortened: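 His-tagged APE1 (0.05 nM) preincubated with compound 10 min at 30 °C in MOPS pH 7.2 buffer with 7.5 mM MnCl2 and 10% DMSO, then 200 nM 5′-32P-labelled abasic (THF) duplex added for 10 min. Incision products resolved on denaturing gel, phosphorimaged; IC50 from %I versus log concentration.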

HCT 116 p53^+/+ = assay: MTT cytotoxicity assay, HCT 116 p53+/+; type: cell-based; details: Homo sapiens, 72 h
Excerpt: (§1) Human melanoma cell line MDA-MB 435, pancreatic cancer cell line Panc-1, and colon cancer cell line HT 29 were purchased from the American Type Cell Culture (Manassas, VA, USA). HCT 116 p53^+/+ and HCT 116 p53^−/^− were kindly provided by Dr. Bert Vogelstein, Johns Hopkins Medical Institutions (Baltimore, MD, USA). HCT 116 p53^+/+, HCT116 p53^−/^−, and HT 29 cells were maintained as monolayer cultures in RPMI 1640 supplemented with 10% fetal bovine serum (FBS; Gemini-Bioproducts, Woodland, CA, USA) and 2 mmol/L L-glutamine at 37 °C in a humidified atmosphere of 5% CO2. Similarly, MDA-MB 435 and Panc-1 cells were maintained in Dulbecco’s modified Eagle’s medium (DMEM) supplemented with 10% fetal bovine serum as described above. […]
(§2) Cytotoxicity was assessed by 3-(4,5-dimethylthiazol-2-yl)-2,5-diphenyltetrazolium bromide (MTT) assay as previously described. […]
(§3) After 72 h exposure to the test compounds, MTT solution (5 mg/mL; 20 μL) was added to each well and cells were incubated for 4 h at 37 °C. […] The absorbance intensity was measured at 570 nm against appropriate blank controls using a microplate reader (Molecular Devices, Sunnyvale, CA, USA). […]

HCT 116 p53^−/^− = assay: MTT cytotoxicity assay, HCT 116 p53−/−; type: cell-based; details: Homo sapiens, 72 h
Excerpt: as §1, §2, §3

[2] = tested on: Panc-1 pancreatic cancer cell line; assay: MTT cytotoxicity assay, Panc-1; type: cell-based; details: Homo sapiens, 72 h
Excerpt: as §1, §2, §3

T1 sequence (P27695 whole entry): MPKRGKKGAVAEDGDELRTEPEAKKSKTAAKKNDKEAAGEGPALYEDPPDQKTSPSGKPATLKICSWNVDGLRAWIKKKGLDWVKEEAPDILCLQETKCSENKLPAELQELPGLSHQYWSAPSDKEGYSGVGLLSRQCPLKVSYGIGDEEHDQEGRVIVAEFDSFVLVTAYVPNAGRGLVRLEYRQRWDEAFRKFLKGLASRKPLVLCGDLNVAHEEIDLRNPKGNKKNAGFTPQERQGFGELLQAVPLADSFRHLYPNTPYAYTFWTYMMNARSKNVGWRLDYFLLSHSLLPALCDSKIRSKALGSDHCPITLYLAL

| Structure (SMILES) | IC50 [1] | GI50 (HCT 116 p53^+/+) | GI50 (HCT 116 p53^−/^−) | melting point | GI50 [2] |
| --- | --- | --- | --- | --- | --- |
| O=C(Nc1ccc(Cl)cc1)C(=S)NN1C(=O)C(=Cc2ccc([N+](=O)[O-])o2)SC1=S [Compound 13, N-(4-chlorophenyl)-2-{5-[(5-nitro-2-furyl)methylene]-4-oxo-2-thioxo-1,3-thiazolidin-3-yl}amino-2-thioxoacetamide] | 93 µM | > 10 µM | 6.5 ± 1.2 µM | 159 to 160 °C | 8.6 ± 1.6 µM |
| COc1ccc(NC(=O)C(=S)NN2C(=O)C(=Cc3ccc([N+](=O)[O-])o3)SC2=S)cc1 [Compound 17, N-(4-methoxyphenyl)-2-{5-[(5-nitro-2-furyl)methylene]-4-oxo-2-thioxo-1,3-thiazolidin-3-yl}amino-2-thioxoacetamide] | > 100 µM | 5.1 ± 0.8 µM | 6.1 ± 2.2 µM | 187 to 188 °C | 8.2 ± 1.2 µM |
